# Reference: BindingDB's records for doi:10.1021/jm801306g (University of Alberta, 2009)
# Tests used:
# [1] = biological target: Trypanothione reductase (Trypanosoma brucei brucei, UniProt P39051); assay: TryR Enzyme Inhibition Assay
# Procedure: (§1) Inhibition of TryR was carried out in 96-well plates using a Biotek Precision 2000 automated liquid handler. Reaction was initiated by addition of NADPH to the assay mixtures contained TryR , trypanothione disulfide substrate, and inhibitor (100 uM to 10 nM in 3-fold serial dilutions). […] Raw data was processed using Microsoft Excel. Grafit 5.0 (Erithacus software) was used to fit the data to a three-parameter equation to determine IC50 values. IC50 determinations were carried out in triplicate for each compound and the mean weighted to standard error calculated.
# [2] = biological target: Trypanothione reductase (Trypanosoma cruzi, UniProt P28593); assay: TryR Enzyme Inhibition Assay; conditions: pH 7.5; 22 °C
# Procedure: as §1
# Chain of Trypanothione reductase (Trypanosoma cruzi, UniProt P28593) (P28593 whole entry): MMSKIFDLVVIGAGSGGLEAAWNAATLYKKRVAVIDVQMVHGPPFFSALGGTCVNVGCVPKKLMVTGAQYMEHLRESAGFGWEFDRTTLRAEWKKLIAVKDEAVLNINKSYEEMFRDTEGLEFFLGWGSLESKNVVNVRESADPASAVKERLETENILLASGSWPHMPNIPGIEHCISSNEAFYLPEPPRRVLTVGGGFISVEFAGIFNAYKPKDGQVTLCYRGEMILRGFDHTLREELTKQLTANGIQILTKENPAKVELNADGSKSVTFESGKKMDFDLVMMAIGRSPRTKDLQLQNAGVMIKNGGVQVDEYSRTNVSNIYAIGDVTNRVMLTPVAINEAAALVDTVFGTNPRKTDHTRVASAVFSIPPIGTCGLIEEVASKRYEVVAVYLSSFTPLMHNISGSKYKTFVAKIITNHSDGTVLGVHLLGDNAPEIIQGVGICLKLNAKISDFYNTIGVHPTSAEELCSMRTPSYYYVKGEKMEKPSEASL
# Chain of Trypanothione reductase (Trypanosoma brucei brucei, UniProt P39051) (P39051 whole entry): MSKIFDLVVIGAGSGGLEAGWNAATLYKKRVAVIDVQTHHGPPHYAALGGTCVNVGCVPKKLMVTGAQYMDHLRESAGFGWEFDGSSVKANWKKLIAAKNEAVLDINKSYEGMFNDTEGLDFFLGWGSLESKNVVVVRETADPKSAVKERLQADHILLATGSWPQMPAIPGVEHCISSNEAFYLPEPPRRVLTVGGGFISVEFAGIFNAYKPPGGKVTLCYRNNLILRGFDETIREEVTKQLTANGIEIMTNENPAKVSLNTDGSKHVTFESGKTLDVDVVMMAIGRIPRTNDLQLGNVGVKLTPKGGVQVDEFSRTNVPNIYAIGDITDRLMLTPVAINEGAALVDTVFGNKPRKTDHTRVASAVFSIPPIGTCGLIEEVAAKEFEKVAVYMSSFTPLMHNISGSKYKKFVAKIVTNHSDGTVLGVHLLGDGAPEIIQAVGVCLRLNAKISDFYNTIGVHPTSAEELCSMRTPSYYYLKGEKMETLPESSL
structure (smiles),measurement,setting,value
"C[N+]1(Cc2ccccc2)CCC(NC=C2C(=O)NC(=O)N(C3CCCCC3)C2=O)CC1 (configuration not stated) [1-benzyl-4-[(E)-[(1-cyclohexyl-2,4,6-trioxo-1,3-diazinan-5-yl)methylidene]amino]-1-methylpiperidin-1-ium]",IC50,[1],> 100 µM
same,IC50,[2],45.2 µM
